The term DC50 denotes the concentration at which degradation of the target reaches its halfway point. Low values mean a more potent degrader, high ones a less potent degrader. One may read the Dmax as the largest share of the target that was removed. Read a low Dmax as shallow degradation.

Results on 16 compounds are retold here after patent US20260232812A1, “BIFUNCTIONAL MOLECULES FOR TARGETED PROTEIN DEGRADATION” (Amphista Therapeutics Limited, priority 2022, published 2026).

Bounds are passed on as bounds.

Holding throughout (type): cell-based
Assay [1] has as its target T1, BRD9 (Homo sapiens, UniProt Q9H8M2).
T1 sequence (Q9H8M2 1-597): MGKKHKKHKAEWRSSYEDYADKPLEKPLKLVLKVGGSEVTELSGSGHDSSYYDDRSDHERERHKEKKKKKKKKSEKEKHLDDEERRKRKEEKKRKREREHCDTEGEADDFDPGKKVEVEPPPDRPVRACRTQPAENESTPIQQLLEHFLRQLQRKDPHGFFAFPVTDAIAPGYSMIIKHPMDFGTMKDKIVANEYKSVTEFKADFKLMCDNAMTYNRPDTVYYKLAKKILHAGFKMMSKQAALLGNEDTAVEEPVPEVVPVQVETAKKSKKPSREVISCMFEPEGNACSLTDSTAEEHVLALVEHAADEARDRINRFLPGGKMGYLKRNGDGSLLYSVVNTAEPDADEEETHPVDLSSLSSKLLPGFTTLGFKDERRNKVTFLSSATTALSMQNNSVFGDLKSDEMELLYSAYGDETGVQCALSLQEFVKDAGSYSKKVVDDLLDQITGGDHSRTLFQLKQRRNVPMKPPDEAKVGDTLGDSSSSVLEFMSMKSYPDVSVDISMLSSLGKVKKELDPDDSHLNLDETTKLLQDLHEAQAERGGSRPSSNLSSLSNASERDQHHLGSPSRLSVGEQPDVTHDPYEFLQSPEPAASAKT
The experiment in a line: Assay Protocol 1 - Degradation of HiBit-BRD9 in HEK293. To be noted: titration up to 10 μM; for DC50: Assay Protocol 1: HiBit-BRD9 in HEK293, 6 h. As to the method:
Assay Protocol 1—Degradation of HiBit-BRD9 in HEK293
HEK293 stably expressing LgBit and containing a HiBit insertion for BRD9 were plated in 384-well tissue culture plates at a density of 8×10^3 per well in a volume of 36 μL and incubated overnight at 37° C. and 5% CO2. Wells were treated with test compounds (11 pt titration up to 10 μM) for 6 h prior to addition of Nano-Glo® Hibit Lytic buffer (1:50 substrate and 1:100 LgBit protein) and reading on a PheraSTAR. Degradation data was plotted and analysed using Prism 8 (Graphpad).
(In general: HiBiT is a short tag that completes a luciferase, so light tracks the accessible tagged protein.)

For assay [2], the target named is T1, BRD9. Description: Assay Protocol 2 - Degradation of BRD9 (IF) in MV4-11 cells. Set-up: host or cells: MV4-11. To be noted: Assay Protocol 2: BRD9 immunofluorescence, 24 hours. How it is done: Assay Protocol 2—Degradation of BRD9 (IF)
A suspension of MV4-11 cells (ATCC CRL-9591) was prepared in phenol red-free assay media (IMDM Thermo Scientific 21056023+10% FBS ATCC 302025) and cells were seeded at 20,000 cells per well (45 μL) in sterile black poly-d-lysine coated 384 well plates (Greiner 781948). Compounds were prepared at 1000× final concentration in DMSO, diluted 1:100 in assay media, and 5 μL compound was added to each well of the cell plate. Cells were incubated for 24 hours at 37° C. with 5% CO2. All the following incubations for immunofluorescence staining were at room temperature. 15 μL of 16% PFA was added to each well (3.7% final concentration) and the cells were fixed for 15 min then washed twice with DPBS. Cells were permeabilised with 0.1% Triton X-100 for 10 min, Triton X-100 was removed, then blocked with 1% BSA in DPBS for 1 hour. Cells were stained with 25 μL anti-BRD9 E4Q3F antibody (CST 48306) diluted 1:25600 in 1% BSA in DPBS for 2-3 hours. Wells were washed twice with DPBS then incubated with 25 μL of 1% BSA containing a 1:1000 dilution of Anti-rabbit Alexa Fluor™ 647 secondary antibody (Thermo Scientific A^21244) and 1 μg/mL Hoechst nuclear counter stain (Abcam ab228551) for 1 hour. Wells were washed twice with DPBS prior to imaging on a Perkin Elmer Operetta CLS with 10× air lens. Images were processed using Harmony High-Content Imaging and Analysis Software (Perkin Elmer) and the mean contrast ratio of Alexa Fluor™ 647 in central nuclei was used to quantify BRD9 protein levels. Data was further analysed using Dotmatics software and % BRD9 remaining was calculated by normalisation to average data from high and low control wells (cells treated with DMSO or 100 nM CFT-8634 respectively).

Assay [3] has as its target T2, BRD4 (Homo sapiens, UniProt O60885).
T2 construct: HEK293 containing a HiBit insertion for BRD4; endogenous in cells; host or cells: HEK293 with a HiBiT insertion for BRD4
The experiment in a line: Assay 1 - Degradation of HiBit-BRD4 in HEK293. The conditions noted are these: HiBit-BRD4 in HEK293, 6 h treatment. How it is done:
1.1 Assay 1-Degradation of HiBit-BRD4 in HEK293
HEK293 containing a HiBit insertion for BRD4 were plated in 384-well tissue culture plates at a density of 8×10^4 per well in a volume of 36 μL and incubated overnight at 37° C. and 5% CO2. Wells were treated with test compounds for 6 h prior to addition of the NanoLuc substrate and reading on a […]. Degradation data was plotted and analysed using […] (Graphpad).

`COc1cc(-c2cn(C)c(=O)c(C)c2C)cc(OC)c1CN(C)C1CCN(C(=O)/C(C#N)=C/C(C)(C)C)CC1` [BRD9d, (E/Z)-2-(4-((2,6-dimethoxy-4-(1,4,5-trimethyl-6-oxo-1,6-dihydropyridin-3-yl)benzyl)(methyl)amino)piperidine-1-carbonyl)-4,4-dimethylpent-2-enenitrile]: the DC50 in assay [1] and in assay [2] was less than 25 nM throughout.

`COc1cc(-c2cn(C)c(=O)c(C)c2C)cc(OC)c1CN1CC2CC1CN2C(=O)/C(C#N)=C/C(C)(C)C` (mixture of isomers) [BRD9b, (E/Z)-2-(5-(2,6-dimethoxy-4-(1,4,5-trimethyl-6-oxo-1,6-dihydropyridin-3-yl)benzyl)-2,5-diazabicyclo[2.2.1]heptane-2-carbonyl)-4,4-dimethylpent-2-enenitrile] displayed a DC50 in assay [2] of more than 200 nM.

In assay [2], `COc1cc(-c2cn(C)c(=O)c(C)c2C)cc(OC)c1CN1CC2CC1CN2C(=O)/C(C#N)=C/c1nccs1` (mixture of isomers) [BRD9i, (E/Z)-2-(5-(2,6-dimethoxy-4-(1,4,5-trimethyl-6-oxo-1,6-dihydropyridin-3-yl)benzyl)-2,5-diazabicyclo[2.2.1]heptane-2-carbonyl)-3-(thiazol-2-yl)acrylonitrile] yielded a DC50 of more than 200 nM and a Dmax of 30 to 50%.

Compound `COc1cc(-c2cn(C)c(=O)c(C)c2C)cc(OC)c1C(=O)N1CCN(C(=O)/C(C#N)=C/C(C)(C)C)CC1` [BRD9s, (E/Z)-2-(4-(2,6-dimethoxy-4-(1,4,5-trimethyl-6-oxo-1,6-dihydropyridin-3-yl)benzoyl)piperazine-1-carbonyl)-4,4-dimethylpent-2-enenitrile] showed a DC50 in assay [2] of 25 to 200 nM.

In assay [2], `COc1cc(-c2cn(C)c(=O)c(C)c2C)cc(OC)c1CN1C2CC1CN(C(=O)/C(C#N)=C/C1(F)CC1)C2` [BRD9ag, (E)-2-(6-(2,6-dimethoxy-4-(1,4,5-trimethyl-6-oxo-1,6-dihydropyridin-3-yl)benzyl)-3,6-diazabicyclo[3.1.1]heptane-3-carbonyl)-3-(1-fluorocyclopropyl)acrylonitrile] yielded a DC50 of less than 25 nM and a Dmax not below 70%.

In assay [2], `COc1cc(-c2cn(C)c(=O)c(C)c2C)cc(OC)c1CN1C2CC1CN(C(=O)/C(C#N)=C/c1cccc(C(F)(F)F)n1)C2` [BRD9af, (E)-2-(6-(2,6-dimethoxy-4-(1,4,5-trimethyl-6-oxo-1,6-dihydropyridin-3-yl)benzyl)-3,6-diazabicyclo[3.1.1]heptane-3-carbonyl)-3-(6-(trifluoromethyl)pyridin-2-yl)acrylonitrile] had a DC50 of less than 25 nM and a Dmax not below 70%.

In the case of `COc1cc(-c2cn(C)c(=O)c(C)c2C)cc(OC)c1C(=O)N1CCCN(C(=O)/C(C#N)=C/C(C)(C)C)CC1` [BRD9v, (E/Z)-2-(4-(2,6-dimethoxy-4-(1,4,5-trimethyl-6-oxo-1,6-dihydropyridin-3-yl)benzoyl)-1,4-diazepane-1-carbonyl)-4,4-dimethylpent-2-enenitrile], the DC50 in assay [2] lay in the range of 25 to 200 nM.

As for `COc1cc(-c2cn(C)c(=O)c(C)c2C)cc(OC)c1CN1C2CC1CN(C(=O)/C(C#N)=C/C1(C(F)(F)F)CCC1)C2` (mixture of isomers) [BRD9p, (E/Z)-2-(6-(2,6-dimethoxy-4-(1,4,5-trimethyl-6-oxo-1,6-dihydropyridin-3-yl)benzyl)-3,6-diazabicyclo[3.1.1]heptane-3-carbonyl)-3-(1-(trifluoromethyl)cyclobutyl)acrylonitrile], in assay [2], the DC50 was in the range of 25 to 200 nM and the Dmax lay within 50 to 70%.

Take `COc1cc(-c2cn(C)c(=O)c(C)c2C)cc(OC)c1CN1CCN(C(=O)/C(C#N)=C/c2nccs2)CC1` [BRD9g, (E/Z)-2-(4-(2,6-dimethoxy-4-(1,4,5-trimethyl-6-oxo-1,6-dihydropyridin-3-yl)benzyl)piperazine-1-carbonyl)-3-(thiazol-2-yl)acrylonitrile]: the 50% degradation concentration (DC50) in assay [1] is more than 200 nM. The Dmax in assay [1] (HEK293, Assay Protocol 1: HiBit-BRD9 in HEK293, 6 h) was in the range of 30 to 50%.

For `COc1cc(-c2cn(C)c(=O)c(C)c2C)cc(OC)c1C(=O)N1CC2CC1CN2C(=O)/C(C#N)=C/C(C)(C)C` (mixture of isomers) [BRD9t, (E/Z)-2-(5-(2,6-dimethoxy-4-(1,4,5-trimethyl-6-oxo-1,6-dihydropyridin-3-yl)benzoyl)-2,5-diazabicyclo[2.2.1]heptane-2-carbonyl)-4,4-dimethylpent-2-enenitrile], the DC50 in assay [2] was 25 to 200 nM.

Compound `COc1cc(-c2cn(C)c(=O)c3ccsc23)cc(OC)c1CN1CCN(C(=O)/C(C#N)=C/C(C)(C)C)CC1` [BRD9w, (E/Z)-2-(4-(2,6-dimethoxy-4-(5-methyl-4-oxo-4,5-dihydrothieno[3,2-c]pyridin-7-yl)benzyl)piperazine-1-carbonyl)-4,4-dimethylpent-2-enenitrile] had a DC50 in assay [1] of 25 to 200 nM.

In assay [2], `COc1cc(-c2cn(C)c(=O)c(C)c2C)cc(OC)c1CN1CCN(C(=O)C2CC(C)CN(C(=O)/C(C#N)=C/C(C)(C)C)C2)CC1` (centres unmarked) [BRD9ba, (E)-2-(3-(4-(2,6-dimethoxy-4-(1,4,5-trimethyl-6-oxo-1,6-dihydropyridin-3-yl)benzyl)piperazine-1-carbonyl)-5-methylpiperidine-1-carbonyl)-4,4-dimethylpent-2-enenitrile] displayed a DC50 of less than 25 nM and a maximal degradation (Dmax) not below 70%.

`CC(=O)N1c2ccc(-c3ccc(C(=O)NCCOCCOCCOCCOCCOCCNC(=O)C4CCCN(C(=O)/C(C#N)=C/c5ccn(C)n5)C4)cc3)cc2[C@H](Nc2ccc(Cl)cc2)C[C@@H]1C` (some centres unmarked) [Example 13c]: in assay [3], the 50% degradation concentration (DC50) was in the range of 25 to 200 nM and the Dmax is less than 50%.

For the compound `CC(=O)N1c2ccc(-c3ccc(C(=O)NCCOCCOCCOCCOCCOCCNC(=O)C4CC(C)CN(C(=O)/C(C#N)=C/c5ccc(F)cc5)C4)cc3)cc2[C@H](Nc2ccc(Cl)cc2)C[C@@H]1C` (some centres unmarked) [Example 13i], in assay [3], the half-maximal degradation concentration (DC50) was more than 200 nM and the maximal degradation (Dmax) lay within 30 to 50%.

As to `COc1cc(-c2cn(C)c(=O)c(C)c2C)cc(OC)c1CN1C[C@@H](C)N(C(=O)/C(C#N)=C/C(C)(C)C)C[C@@H]1C` [BRD9ad, (E)-2-((2R,5S)-4-(2,6-dimethoxy-4-(1,4,5-trimethyl-6-oxo-1,6-dihydropyridin-3-yl)benzyl)-2,5-dimethylpiperazine-1-carbonyl)-4,4-dimethylpent-2-enenitrile], in assay [2], the DC50 was 25 to 200 nM and the greatest degradation seen (Dmax) was 50 to 70%.

As to `COc1cc(-c2cn(C)c(=O)c(C)c2C)cc(OC)c1CN1CC2CC(C1)N2C(=O)/C(C#N)=C/c1cccc(Br)n1` (mixture of isomers) [BRD9m, (E/Z)-3-(6-bromopyridin-2-yl)-2-(3-(2,6-dimethoxy-4-(1,4,5-trimethyl-6-oxo-1,6-dihydropyridin-3-yl)benzyl)-3,6-diazabicyclo[3.1.1]heptane-6-carbonyl)acrylonitrile], in assay [2], the greatest degradation seen (Dmax) was not below 70%.
